Assays:
[1] = target: T1, panel of 442 kinases (Homo sapiens, UniProt O60285); type: binding; design: KINOMEscan: ABL1(F317L)-phosphorylated / KINOMEscan: ABL1(H396P)-nonphosphorylated / KINOMEscan: ABL1(H396P)-phosphorylated / KINOMEscan: ABL1(M351T)-phosphorylated / KINOMEscan: ABL1(T315I)-phosphorylated / KINOMEscan: ABL1-nonphosphorylated / KINOMEscan: ABL1-phosphorylated / KINOMEscan: ACVR2A / KINOMEscan: ACVR2B / KINOMEscan: ADCK3 / KINOMEscan: ADCK4 / KINOMEscan: AKT1 / KINOMEscan: AKT3 / KINOMEscan: ALK / KINOMEscan: ARK5 / KINOMEscan: AURKA / KINOMEscan: AURKC / KINOMEscan: BIKE / KINOMEscan: BMPR1A / KINOMEscan: BMPR1B / KINOMEscan: BMX / KINOMEscan: BRK / KINOMEscan: BRSK1 / KINOMEscan: BRSK2 / KINOMEscan: CAMK1 / KINOMEscan: CAMK1D / KINOMEscan: CAMK1G / KINOMEscan: CAMK2A / KINOMEscan: CAMK2B / KINOMEscan: AAK1 / KINOMEscan: CAMK2D / KINOMEscan: CAMK2G / KINOMEscan: ABL1(F317I)-nonphosphorylated / KINOMEscan: ABL1(F317I)-phosphorylated / KINOMEscan: ABL1(F317L)-nonphosphorylated: unit: % Ctrl; settings: Compound Concentration 10 µM
T1 construct: purchased KINOMEscan
T1 sequence (O60285 1-661): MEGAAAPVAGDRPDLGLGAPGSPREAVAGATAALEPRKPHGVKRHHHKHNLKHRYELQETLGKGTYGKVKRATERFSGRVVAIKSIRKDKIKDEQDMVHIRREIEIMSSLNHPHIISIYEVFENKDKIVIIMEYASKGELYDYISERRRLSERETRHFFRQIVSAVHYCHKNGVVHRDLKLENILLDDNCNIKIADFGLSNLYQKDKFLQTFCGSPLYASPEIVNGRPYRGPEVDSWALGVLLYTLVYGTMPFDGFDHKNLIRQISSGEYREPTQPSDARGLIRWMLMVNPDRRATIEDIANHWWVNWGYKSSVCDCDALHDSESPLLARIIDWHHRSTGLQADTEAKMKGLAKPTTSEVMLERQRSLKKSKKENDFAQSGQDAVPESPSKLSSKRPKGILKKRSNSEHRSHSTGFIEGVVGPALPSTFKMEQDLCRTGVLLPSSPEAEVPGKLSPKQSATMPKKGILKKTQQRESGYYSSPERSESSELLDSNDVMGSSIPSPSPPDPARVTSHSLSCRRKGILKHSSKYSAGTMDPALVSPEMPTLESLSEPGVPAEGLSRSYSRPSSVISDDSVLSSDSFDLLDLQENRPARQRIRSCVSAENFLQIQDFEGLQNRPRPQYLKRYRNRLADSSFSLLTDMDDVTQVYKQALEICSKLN
Source text: (§1) We assessed the selectivity of members of this scaffold using the KINOMEscan methodology across a near comprehensive panel of 442 kinases [[18,27]].

[2] = target: T2, panel of 442 kinases (Homo sapiens, UniProt P36888, R834Q); type: binding; design: KINOMEscan: ABL1(F317L)-phosphorylated / KINOMEscan: ABL1(H396P)-nonphosphorylated / KINOMEscan: ABL1(H396P)-phosphorylated / KINOMEscan: ABL1(M351T)-phosphorylated / KINOMEscan: ABL1(T315I)-phosphorylated / KINOMEscan: ABL1-nonphosphorylated / KINOMEscan: ABL1-phosphorylated / KINOMEscan: ACVR2A / KINOMEscan: ACVR2B / KINOMEscan: ADCK3 / KINOMEscan: ADCK4 / KINOMEscan: AKT1 / KINOMEscan: AKT3 / KINOMEscan: ALK / KINOMEscan: ARK5 / KINOMEscan: AURKA / KINOMEscan: AURKC / KINOMEscan: BIKE / KINOMEscan: BMPR1A / KINOMEscan: BMPR1B / KINOMEscan: BMX / KINOMEscan: BRK / KINOMEscan: BRSK1 / KINOMEscan: BRSK2 / KINOMEscan: CAMK1 / KINOMEscan: CAMK1D / KINOMEscan: CAMK1G / KINOMEscan: CAMK2A / KINOMEscan: CAMK2B / KINOMEscan: AAK1 / KINOMEscan: CAMK2D / KINOMEscan: CAMK2G / KINOMEscan: ABL1(F317I)-nonphosphorylated / KINOMEscan: ABL1(F317I)-phosphorylated / KINOMEscan: ABL1(F317L)-nonphosphorylated: unit: % Ctrl; settings: Compound Concentration 10 µM
T2 construct: purchased KINOMEscan
T2 sequence (P36888 27-993 R834Q): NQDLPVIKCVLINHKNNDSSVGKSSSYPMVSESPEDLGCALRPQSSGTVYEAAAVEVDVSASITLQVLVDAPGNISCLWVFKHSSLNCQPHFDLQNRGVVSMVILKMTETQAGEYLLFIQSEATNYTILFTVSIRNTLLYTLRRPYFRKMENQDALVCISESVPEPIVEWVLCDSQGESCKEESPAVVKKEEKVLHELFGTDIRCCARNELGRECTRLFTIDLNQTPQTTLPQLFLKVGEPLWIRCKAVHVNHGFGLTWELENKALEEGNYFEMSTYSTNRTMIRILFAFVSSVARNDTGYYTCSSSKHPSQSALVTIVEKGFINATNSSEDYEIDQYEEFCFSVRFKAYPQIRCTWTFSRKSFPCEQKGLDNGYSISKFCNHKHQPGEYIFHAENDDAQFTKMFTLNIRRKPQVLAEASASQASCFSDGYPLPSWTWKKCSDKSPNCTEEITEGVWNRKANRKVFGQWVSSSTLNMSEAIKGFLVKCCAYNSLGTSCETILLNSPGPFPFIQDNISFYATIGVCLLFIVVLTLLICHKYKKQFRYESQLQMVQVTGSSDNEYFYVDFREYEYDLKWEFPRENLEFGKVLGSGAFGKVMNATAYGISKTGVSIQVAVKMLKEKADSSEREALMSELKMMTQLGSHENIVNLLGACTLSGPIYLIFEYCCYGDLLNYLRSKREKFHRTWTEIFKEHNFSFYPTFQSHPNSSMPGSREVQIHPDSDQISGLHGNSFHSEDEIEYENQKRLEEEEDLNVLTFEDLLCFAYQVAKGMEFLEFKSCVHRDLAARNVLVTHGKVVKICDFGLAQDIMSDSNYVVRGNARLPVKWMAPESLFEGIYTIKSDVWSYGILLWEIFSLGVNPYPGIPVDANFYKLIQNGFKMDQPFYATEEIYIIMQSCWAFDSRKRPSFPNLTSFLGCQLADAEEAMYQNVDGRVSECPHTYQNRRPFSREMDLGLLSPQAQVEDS
Source text: as §1

| SMILES | KINOMEscan: ARK5 [1] | KINOMEscan: FLT3(R834Q) [2] |
| --- | --- | --- |
| CCOc1cc(C(=O)N2CCC(N3CCN(C)CC3)CC2)ccc1Nc1ncc2c(n1)N(C1CCCC1)c1ccccc1C(=O)N2C [Compound 26] | 100 | 100 |
| COc1cc(C(=O)N2CCC(N3CCN(C)CC3)CC2)ccc1Nc1ncc2c(n1)N(C1CCCC1)c1ccccc1C(=O)N2C [Compound 25, 11-cyclopentyl-2-((2-methoxy-4-(4-(4-methylpiperazin-1-yl)piperidine-1-carbonyl)phenyl)amino)-5-methyl-5H-benzo[e]pyrimido[5,4-b][1,4]diazepin-6(11H)-one] | 90 | 100 |
| COc1cc(C(=O)N2CCC(N3CCN(C)CC3)CC2)ccc1Nc1ncc2c(n1)N1CCc3cccc(c31)C(=O)N2C [Compound 24] | 68 | 100 |
| COc1cc(C(=O)N2CCC(N3CCN(C)CC3)CC2)ccc1Nc1ncc2c(n1)N(C)c1ccccc1C(=O)N2C [15 (LRRK2-IN-1)] | 47 | 100 |

— publication PMC3914206
